Reference: paper PMC9525273 (Nature Communications, 2022)
“And” between values parts separate entries of the source, which are not always exact repeats. Equal values may be shown once. Read-outs that look alike come from different tables or passages of the source.

Assays:
NF54^G358S-1 parasites = assay: P. falciparum proliferation assay (72 h, flow cytometry, SYBR Green I/MitoTracker); type: cell-based, Plasmodium falciparum
Outline: (§1)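 Predominantly ring-stage cultures at 0.3% parasitaemia, 1% haematocrit, in medium with 10% O+ human serum; compound exposure 72 h, DMSO <0.5% (v/v). Live parasites counted by flow cytometry with SYBR Green I and 200 nM MitoTracker Deep Red. IC50/IC90 from linear interpolation of dose-response data.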

NF54^G358S-2 parasites = assay: as above; type: cell-based, Plasmodium falciparum
Outline: as §1

[1] = target: T1, PfATP4^WT (membranes from Dd2-Polδ parasites) (Plasmodium falciparum, UniProt A0A143ZZK9); assay: Membrane ATPase assay, ATP4-associated (Na+-dependent) ATPase activity; type: biochemical; conditions: for PfATP4-associated ATPase activity (% of control): single experiments
T1 sequence (A0A143ZZK9 1-1264): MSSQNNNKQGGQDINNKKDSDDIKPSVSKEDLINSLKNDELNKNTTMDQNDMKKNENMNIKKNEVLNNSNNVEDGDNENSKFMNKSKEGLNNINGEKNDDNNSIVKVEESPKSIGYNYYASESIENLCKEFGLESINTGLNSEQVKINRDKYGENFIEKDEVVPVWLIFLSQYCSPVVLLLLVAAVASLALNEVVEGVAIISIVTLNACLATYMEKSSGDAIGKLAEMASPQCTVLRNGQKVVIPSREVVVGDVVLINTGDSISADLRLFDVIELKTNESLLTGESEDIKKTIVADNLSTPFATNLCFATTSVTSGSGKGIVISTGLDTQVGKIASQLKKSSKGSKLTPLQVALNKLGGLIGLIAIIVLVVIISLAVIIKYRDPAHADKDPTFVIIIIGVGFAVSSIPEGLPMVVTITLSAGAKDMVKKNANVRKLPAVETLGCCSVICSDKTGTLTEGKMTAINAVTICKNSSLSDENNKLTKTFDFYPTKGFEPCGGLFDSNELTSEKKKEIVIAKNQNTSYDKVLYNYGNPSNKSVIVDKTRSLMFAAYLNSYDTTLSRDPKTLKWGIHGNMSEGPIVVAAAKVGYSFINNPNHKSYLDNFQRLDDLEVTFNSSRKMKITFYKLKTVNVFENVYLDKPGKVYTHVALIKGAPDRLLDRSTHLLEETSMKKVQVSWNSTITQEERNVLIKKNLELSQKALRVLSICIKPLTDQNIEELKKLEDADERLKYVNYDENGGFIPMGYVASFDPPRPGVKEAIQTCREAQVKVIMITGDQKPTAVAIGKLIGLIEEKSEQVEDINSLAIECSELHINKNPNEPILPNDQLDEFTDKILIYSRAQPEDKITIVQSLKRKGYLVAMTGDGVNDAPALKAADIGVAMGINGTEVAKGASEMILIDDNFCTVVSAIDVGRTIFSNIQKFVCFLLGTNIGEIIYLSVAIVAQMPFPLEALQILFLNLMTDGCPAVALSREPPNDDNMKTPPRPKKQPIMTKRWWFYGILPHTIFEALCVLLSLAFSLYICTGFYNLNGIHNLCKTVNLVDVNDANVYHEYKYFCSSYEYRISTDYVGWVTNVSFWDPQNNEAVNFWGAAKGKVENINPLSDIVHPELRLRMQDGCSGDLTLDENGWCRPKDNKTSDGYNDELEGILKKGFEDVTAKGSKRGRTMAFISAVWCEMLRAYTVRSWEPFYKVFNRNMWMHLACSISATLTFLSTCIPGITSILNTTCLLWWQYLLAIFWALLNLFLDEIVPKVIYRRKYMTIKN
Method: Membranes from isolated P. falciparum or extracellular T. gondii parasites were prepared by lysing parasites in ice-cold deionized water containing a 1:500 dilution of Protease Inhibitor Cocktail Set III (Merck Millipore), then washing the membrane preparation three times in ice-cold deionized water (with protease inhibitors present for the first two washes)[15]. Protein concentrations in the membrane preparations were measured using a Bradford assay. The PiColorLock Gold Phosphate Detection System (Innova Biosciences) was used to measure the production of Pi from hydrolysis of ATP[15]. Membrane preparations were diluted in either a high Na^+ solution (yielding final conditions in the reactions of 150 mM NaCl, 20 mM KCl, 2 mM MgCl2, 50 mM Tris, pH 7.2) or a Na^+-free solution (yielding final conditions of 150 mM choline chloride, 20 mM KCl, 2 mM MgCl2, 50 mM Tris, pH 7.2) to achieve a total protein concentration of 50 μg/mL. […] The reactions were performed at 37 °C, and were initiated by the addition of 1 mM ATP (Na2ATP۰3H2O; MP Biomedicals) and terminated 10 min later by adding 100 μL of reaction mixture (in duplicate) to 25 μL “Gold mix” in a 96-well plate. “Stabiliser” was added 3 min later, and the plates incubated at room temperature in the dark for 60 min before measuring absorbance at 635 nm. Background values (averaged from wells containing all components, but to which ATP was not added until after the membrane was exposed to Gold mix) were subtracted from the data. For each treatment, the ATPase activity associated with the (Na^+-dependent) PfATP4 and TgATP4 proteins was calculated by subtracting data obtained in the low Na^+ condition (containing only the 2 mM Na^+ introduced on addition of 1 mM Na2ATP) from that obtained in the high Na^+ condition.

Structure (SMILES): C[C@H]1Cc2c([nH]c3cc(Cl)c(F)cc23)[C@@]2(N1)C(=O)Nc1ccc(Cl)cc12 [Cipargamin]
- IC50 (NF54^G358S-1 parasites; NF54G358S-1, single experiments, source data of Fig. 2 (nM in Supplementary Table 5), read-out: IC50 values): 2030 nM and 1970 nM and 2280 nM
- FC (IC50) (NF54^G358S-1 parasites; NF54G358S-1 compared to NF54WT): 768.6 fold
- FC (IC90) (NF54^G358S-1 parasites; NF54G358S-1 compared to NF54WT): 910.8 fold
- IC90 (NF54^G358S-1 parasites; NF54G358S-1 parasites, individual experiments, read-out: IC90 values): 3.46 µM (2×) and 3.39 µM
- IC50 (NF54^G358S-1 parasites; Plasmodium falciparum, NF54, NF54G358S-1, 10% human serum, read-out: IC50 ± SEM): 2030 ± 93.9 nM
- IC90 (NF54^G358S-1 parasites; Plasmodium falciparum, NF54, NF54G358S-1, 10% human serum, read-out: IC90 ± SEM): 3461 ± 30.7 nM
- IC50 (NF54^G358S-1 parasites; Plasmodium falciparum, NF54, NF54G358S-1, MEAN, source data of Fig. 2, read-out: IC50 values, MEAN): 2030 nM
- IC50 (NF54^G358S-1 parasites; Plasmodium falciparum, NF54, NF54G358S-1, single experiments, source data of Fig. 2 (nM in Supplementary Table 5), read-out: IC50 values): 1840 nM
- IC90 (NF54^G358S-1 parasites; Plasmodium falciparum, NF54, NF54G358S-1 parasites, individual experiments, read-out: IC90 values): 3540 nM
- IC90 (NF54^G358S-1 parasites; Plasmodium falciparum, NF54, NF54G358S-1 parasites, mean of the experiments, read-out: IC90 values, MEAN): 3460 nM
- IC50 (NF54^G358S-2 parasites; NF54G358S-2, single experiments, source data of Fig. 2 (nM in Supplementary Table 5), read-out: IC50 values): 1750 nM and 2010 nM and 2430 nM
- FC (IC50) (NF54^G358S-2 parasites; NF54G358S-2 compared to NF54WT): 751.9 fold
- FC (IC90) (NF54^G358S-2 parasites; NF54G358S-2 compared to NF54WT): 903.4 fold
- IC90 (NF54^G358S-2 parasites; NF54G358S-2 parasites, individual experiments, read-out: IC90 values): 3350 nM and 3420 nM and 3530 nM
- IC90 (NF54^G358S-2 parasites; Plasmodium falciparum, NF54, NF54G358S-2, 10% human serum, read-out: IC90 ± SEM): 3430 ± 36.7 nM
- IC50 (NF54^G358S-2 parasites; Plasmodium falciparum, NF54, NF54G358S-2, MEAN, source data of Fig. 2, read-out: IC50 values, MEAN): 1980 nM
- IC50 (NF54^G358S-2 parasites; Plasmodium falciparum, NF54, NF54G358S-2, single experiments, source data of Fig. 2 (nM in Supplementary Table 5), read-out: IC50 values): 1750 nM
- IC90 (NF54^G358S-2 parasites; Plasmodium falciparum, NF54, NF54G358S-2 parasites, individual experiments, read-out: IC90 values): 3430 nM
- IC90 (NF54^G358S-2 parasites; Plasmodium falciparum, NF54, NF54G358S-2 parasites, mean of the experiments, read-out: IC90 values, MEAN): 3430 nM
- IC50 for inhibition of ATP4-associated ATPase activity, MEAN ([1]; Dd2-Polδ membranes, MEAN, source data of Table 1 (nM there)): 2.51
- remaining activity at 3.76 pM ([1]; Dd2-Polδ, [Cipargamin] 0.00376 nM, MEAN, read-out: PfATP4-associated ATPase activity (% of control)): 75.4%
- remaining activity at 11 pM ([1]; Dd2-Polδ, [Cipargamin] 0.011 nM, MEAN, read-out: PfATP4-associated ATPase activity (% of control)): 75%
- PfATP4-associated ATPase activity (% of control) ([1]; Dd2-Polδ, [Cipargamin] 0.011 nM, 11 pM): 92.1 % of control and 50.6 % of control and 82.7 % of control and 74.5 % of control
- remaining activity at 34 pM ([1]; Dd2-Polδ, [Cipargamin] 0.034 nM, MEAN, read-out: PfATP4-associated ATPase activity (% of control)): 76%
- remaining activity at 0.000102 µM ([1]; Dd2-Polδ, [Cipargamin] 0.102 nM, MEAN, read-out: PfATP4-associated ATPase activity (% of control)): 66.1%
- remaining activity at 0.000305 µM ([1]; Dd2-Polδ, [Cipargamin] 0.305 nM, MEAN, read-out: PfATP4-associated ATPase activity (% of control)): 60.1%
- PfATP4-associated ATPase activity (% of control) ([1]; Dd2-Polδ, [Cipargamin] 0.305 nM, 0.000305 µM): 59.8 % of control and 42.8 % of control and 70.9 % of control and 66.9 % of control
- remaining activity at 0.000914 µM ([1]; Dd2-Polδ, [Cipargamin] 0.914 nM, MEAN, read-out: PfATP4-associated ATPase activity (% of control)): 32.6%
- remaining activity at 0.002743 µM ([1]; Dd2-Polδ, [Cipargamin] 2.743 nM, MEAN, read-out: PfATP4-associated ATPase activity (% of control)): 25.1%
- remaining activity at 0.00823 µM ([1]; Dd2-Polδ, [Cipargamin] 8.230 nM, MEAN, read-out: PfATP4-associated ATPase activity (% of control)): -9.5%
- remaining activity at 0.024691 µM ([1]; Dd2-Polδ, [Cipargamin] 24.691 nM, MEAN, read-out: PfATP4-associated ATPase activity (% of control)): -14.7%
- remaining activity at 0.074074 µM ([1]; Dd2-Polδ, [Cipargamin] 74.074 nM, MEAN, read-out: PfATP4-associated ATPase activity (% of control)): -19.7%
- remaining activity at 0.222222 µM ([1]; Dd2-Polδ, [Cipargamin] 222.222 nM, MEAN, read-out: PfATP4-associated ATPase activity (% of control)): -16.9%
- remaining activity at 0.666667 µM ([1]; Dd2-Polδ, [Cipargamin] 666.667 nM, MEAN, read-out: PfATP4-associated ATPase activity (% of control)): -29.5%
- remaining activity at 1.25 pM ([1]; Dd2-Polδ, [Cipargamin] […], MEAN, read-out: PfATP4-associated ATPase activity (% of control)): 85.7%
- IC50 for ATP4-associated ATPase activity ([1]; membranes from Dd2-Polδ, mean ± SEM): 2.5 ± 0.8 (4) nM
